The test system of data set [1] is lithium chloride-pilocarpine epilepsy model rat. In words: Lithium chloride-pilocarpine rat epilepsy model, prophylactic administration. The settings on record: 10 rats; for mortality rate: within 1 to 7 days after modeling. In kind it is in vivo, SD rats. An excerpt: Stages: epileptic seizures evaluation are categorized by Racine Stages
Stage 0: no signs of any seizure;
Stage I: staring, head and face slightly trembling;
Stage II: head nodding or wet dog-like shaking;
Stage III: forelimb limit convulsions;
Stage IV: full-body ankylosing convulsions with a standing hind limb;
Stage V: full-body ankylosing clonic seizures with standing with fell;
Partial epilepsy seizure occurs when any one of Stage Ito Stage III appears;
Generalized epilepsy seizure occurs when Stage IV or Stage V appears;
Status epilepticus (SE) occurs when Stage IV or Stage V lasts 30 minutes.
The rat epilepsy models were treated with lithium chloride-pilocarpine and used levetiracetam as positive control. The duration of acute seizures of lithium chloride-pilocarpine epilepsy model rat was selected as the observation time, and prophylactic administration was used.
Animals were randomly divided into 4 groups, 10/group. Levetiracetam was selected as a positive control, 1.5 times of clinical dose were chosen, that is, 150 mg/kg. The clinical dose of an adult is 800 mg/times, twice daily, that is, 1600 mg/60 kg, 26.7 mg/kg. The dose of a rat is converted to 160 mg/kg according to body surface area. R-oxiracetam and levorotatory oxiracetam were selected half of the dose, that is, 80 mg/kg, and 1.5 times is 120 mg/kg. The dose was 1 ml/100 g, and the rats were treated with continuous administration for 7 days. As levetiracetam administration of 1.3 h (80 min), the plasma concentration peak, so we choose the last 80 minutes after the last administration of modeling. As administration of levetiracetam for 1.3 h (80 min), the plasma concentration peak was reached, so each group was selected after the last 80 minutes after the start of modeling.
Modeling method: After several previous test, the following modeling method was chosen: Animal ip. Lithium chloride 3 mmol/kg (1.5 ml/L) 127 mg/kg (12.7 mg/ml, 1 ml/100 g body weight), 24 h, 37.5 mg/kg pilocarpine three times ip. mg/kg (2.5 mg/ml, 0.5 ml/100 g body weight) at intervals of 10 minutes. […]

Data set [2] can be described thus: Pharmacokinetics and bioavailability in dogs, plasma determined by LC-MS. Format: in vivo, dog. On the procedure: A. The Pharmacokinetics of R-Oxiracetam In Vivo and Studies of Bioavailability
4 Determination Methods of Oxiracetam and R-Oxiracetam in Plasma by LC-MS
4.1 Chromatographic Conditions
Mobile phase: methanol: water (5:95)
Column: ZORBAX SB-Aq (2.1×100 mm 3.5μ)
Column temperature: 30° C.;
Injection volume: […] 4.2 Mass Spectrometry Detection Parameters
Mass spectrometry ionization method: electrospray ionization (ESI); ion polarity Positive; scanning mode for multiple reactions monitoring (MRM); scanning time of 100 ms. The ionic reactions used for quantitative analysis were m/z (oxiracetam) m/z 159.0→m/z 113.9 and m/z 143.1→m/z 126.0 (piracetam), respectively.
20 μL of the drug-containing the plasma sample is taken in a 1.5 mL Eppendorf tube. 20 μL of piracetam (20 μg/mL) of the internal standard solution is added, and mixed by the vortex mixer for 30s. Then, 500 μL of acetonitrile is added thereto, vortex shaken for 5 min and centrifugated at 16000 rpm for 10 min. The supernatant from the centrifugation was passed through 1 ml of SPE C 18E column and the filtrate was collected, put into 38° C. constant temperature water bath and dried by nitrogen gas. 300 μL of mobile phase was dissolved and the injection volume was 10 μL.
20 μL of blank dog plasma was added into the working solution prepared from the oxiracetam standard. The concentrations of oxiracetam in the plasma were 0.167, 0.33, 0.37, 1.33, 2.67, 4.0, 6.67, 13.33 and 26.67 μg/mL, respectively. A sample was made for each concentration respectively according to the procedures“4.4 Extraction of plasma samples”. The ratio of the peak area (As) of oxiracetam to the peak area (Ai) of the internal standard piracetam (f=As/Ai) were calculated, and perform linear regression using the concentration (C) to the ratio (f). The weight parameter 1/x, and the oxiracetam regression equation: y=5.2117X−0.76985 (r=0.9970, weight 1/x).
20 μL of blank dog plasma was added into the working solution prepared from the R-oxiracetam standard. The concentrations of R-oxiracetam in the plasma were 0.167, 0.33, 0.37, 1.33, 2.67, 4.0, 6.67, 13.33 and 26.67 μg/mL, respectively. A sample was made for each concentration respectively according to the procedures “4.4 Extraction of plasma samples”. The ratio of the peak area (As) of R-oxiracetam to the peak area (Ai) of the internal standard piracetam (f=As/Ai) were calculated, and perform linear regression using the concentration (C) to the ratio (f). The weight parameter 1/x, and the oxiracetam regression equation: y=1.6811X−0.031244(r=0.9949, weight 1/x).

In data set [3] the test system is Pentetrazol (PTZ) ignited rat epilepsy model. In words: Pentetrazol (PTZ)-ignited rat epilepsy model. The settings on record: for Seizure latency (X ± SD) / occurrence rates of stage IV or above seizures: 500 mg/kg daily. Format: in vivo, SD rats. On the procedure: Rats were injected intraperitoneally with PTZ at a dose of 35 mg/kg (7 mg/ml, 0.5 ml/100 g body weight) for sub-convulsions three times weekly. The animals are weighed before each ip, and observed for behavioral changes after ip. within 1-2 h. Behavioral scoring was carried out according to the revised Racine score. Three consecutive occurrences of seizures of stage IV and above indicate successful ignition.
The animals successfully ignited were chosen to be grouped. The animals were randomly divided into 4 groups, 8-10/group. […] 3 times of clinical dose were chosen, that is, 500 mg/kg. […] The dosage is 1 ml/100 g, continuous intragastrical administration of 10 days. Specific dose settings are as follows:
PTZ 35 mg/kg. The animals are observed for behavioral changes within 2 h. Behavioral scoring was carried out according to the revised Racine score, continuous administration for 10 days, grading standards as mentioned above.
The seizures were recorded daily ip PTZ within 2 h. The seizure levels, latencies, mortality were recorded, and compared with the model control group.

The conditions of data set [4]: cited from earlier work.
The mark [5] stands for this setting: 120 mg/kg for 7 days before modeling.
Where [6] appears, read: 150 mg/kg for 7 days before modeling.

SMILES strings stand for the structures. Values joined by “and” are separate entries in the source; they are usually repeats but may differ in a detail not shown here. Equal values may be shown once. Marks after values point to notes of the source that are not given here.

On to `NC(=O)CN1C[C@@H](O)CC1=O` [S-oxiracetam], for which, in data set [1] (setting [5]), the “Latency Stage I” value is 16.9 ± 5.4 min, the “Latency Stage II” value worked out at 26.7 ± 6.5 min, the “Latency Stage III” value is recorded as 35.4 ± 5.8 min and the “Latency Stage IV” value was determined as 37.8 ± 7.4 min. Also, in data set [1] (setting [5]), the “Latency Stage V” value is 64.5 ± 23.2 min, the “Number of Deaths” value is given as 3, the “Number of SE Animals” value is on record as 4 and the “Number of seizures Stage I” value is 2.2 ± 1.0 times. Further, in data set [1] (setting [5]), the “Number of seizures Stage II” value is 5.2 ± 3.1 times, the “Number of seizures Stage III” value is on record as 5.6 ± 4.2 times, the “Occurrence rate Stage I” value is reported as 10% and the “Occurrence rate Stage II” value came out at 10%. Moreover, in data set [1] (setting [5]), the “Occurrence rate Stage III” value is on record as 5%, the “Occurrence rate Stage IV” value is given as 4%, the “Occurrence rate Stage V” value is reported as 4% and the “duration Stage IV” value came to 27.5 ± 12.1 min. In data set [1] (setting [5]), the “duration Stage V” value is 79.8 ± 29.5 min and the mortality rate amounted to 30%.
As to `NC(=O)CN1CC(O)CC1=O` (racemic) [oxiracetam], the “Concentration in dog blood C” value in data set [2] (Time 0 h, individual dogs, one table per dog) is 0 ng/mL; in data set [2] (Time 0.25 h, individual dogs, one table per dog), 5123 ng/mL and -4948 ng/mL and 7540 ng/mL and -4135 ng/mL and 5092 ng/mL; in data set [2] (Time 0.5 h, individual dogs, one table per dog), 41650 ng/mL and 36440 ng/mL and 42030 ng/mL and 41740 ng/mL and 42350 ng/mL; in data set [2] (Time 1 h, individual dogs, one table per dog), 106427.1 ng/mL and 101410.1 ng/mL and 79361 ng/mL and 58870 ng/mL and 139963.8 ng/mL and 290065.6 ng/mL; in data set [2] (Time 1.25 h, individual dogs, one table per dog), 104196 ng/mL and 77730 ng/mL and 107177.3 ng/mL and 68450 ng/mL and 302273 ng/mL and 142365.9 ng/mL; in data set [2] (Time 1.5 h, individual dogs, one table per dog), 122326.7 ng/mL and 104856.7 ng/mL and 96860 ng/mL and 192364.2 ng/mL and 186435.5 ng/mL. The “Concentration in dog blood C” value is 161110.6 ng/mL and 146146.6 ng/mL and 100650 ng/mL and 207535.1 ng/mL and 137414 ng/mL and 228058.3 ng/mL in data set [2] (Time 2 h, individual dogs, one table per dog); 52390 ng/mL and 40540 ng/mL and 28940 ng/mL and 42680 ng/mL and 21070 ng/mL and 33010 ng/mL in data set [2] (Time 4 h, individual dogs, one table per dog); 8396 ng/mL and 4367 ng/mL and 4934 ng/mL and 7743 ng/mL and 29760 ng/mL and 8301 ng/mL in data set [2] (Time 6 h, individual dogs, one table per dog); -3894 ng/mL and -4318 ng/mL and -4781 ng/mL and -745.6 ng/mL and -465.7 ng/mL in data set [2] (Time 8 h, individual dogs, one table per dog); -4730.8 ng/mL and -4338 ng/mL and -8257 ng/mL and -2959 ng/mL and -6329 ng/mL and -958.4 ng/mL in data set [2] (Time 12 h, individual dogs, one table per dog); 0 ng/mL and 21660 ng/mL in data set [2] (Time 24 h, individual dogs, one table per dog). In data set [2] (dog, plasma, Time 0 h, individual dogs, one table per dog, read-out: Concentration in dog blood C), the concentration at 0 h stood at 0 ng/mL. Moreover, the concentration at 0.25 h in data set [2] (dog, plasma, Time 0.25 h, individual dogs, one table per dog, read-out: Concentration in dog blood C) was 4890 ng/mL. Also, the concentration at 0.5 h in data set [2] (dog, plasma, Time 0.5 h, individual dogs, one table per dog, read-out: Concentration in dog blood C) was 28200 ng/mL. Further, the concentration at 1.5 h in data set [2] (dog, plasma, Time 1.5 h, individual dogs, one table per dog, read-out: Concentration in dog blood C) was determined as 148000 ng/mL. Besides, the concentration at 8 h in data set [2] (dog, plasma, Time 8 h, individual dogs, one table per dog, read-out: Concentration in dog blood C) turned out to be 3120 ng/mL. Also, the Cmax (as a rule, the maximum level reached in the sampled fluid or tissue) in data set [2] (dog, plasma, dogs, mean ± SD) amounted to 202000 ± 79500 ng/mL.
Turning to `CCCC(CCC)C(=O)[O-].[Na+]` [Sodium valproate, reference compound], the “Seizure latency (X ± SD)” value in data set [3] (D1) came to 4.00 ± 1.41 m; in data set [3] (D2) it was 5.67 ± 2.25 m; in data set [3] (D3) it was 5.67 ± 1.37 m; in data set [3] (D4), 6.33 ± 1.63 m; in data set [3] (D10), 8.33 ± 0.82 m. Moreover, the “occurrence rates of stage IV or above seizures” value in data set [3] (D1) is recorded as 4/6 (66.7) %; in data set [3] (D2) it was 3/6(50.0) %; in data set [3] (D3) it was 3/6 (50.0) %; in data set [3] (D4), 2/6 (33.3) %; in data set [3] (D5) it was 2/6 (33.3) %; in data set [3] (D6), 2/6 (33.3) %. The “occurrence rates of stage IV or above seizures” value is 1/6* (16.7) % in data set [3] (D7), 0/6** (0) % in data set [3] (D8), 1/6 (16.7) % in data set [3] (D9) and 0/6* (0) % in data set [3] (D10). Also, the mortality rate in data set [3] (500 mg/kg intragastric, 10 days) is 0%. The “Numbers of deaths (Number)” value in data set [3] (500 mg/kg intragastric, 10 days, 6 animals) came out at 0. For the same compound, the bioavailability (commonly the share of a dose that reaches the circulation, judged against a reference dose that is usually intravenous) in data set [4] (oral administration) is roughly 100%.
Take `CC[C@@H](C(N)=O)N1CCCC1=O` [Levetiracetam]: in data set [1] (setting [6]), the “Latency Stage I” value turned out to be 17.6 ± 4.1 min, the “Latency Stage II” value is 22.6 ± 5.8 min, the “Latency Stage III” value is reported as 34.6 ± 9.4 min and the “Latency Stage IV” value is reported as 33.6 ± 8.3 min. Besides, in data set [1] (setting [6]), the “Latency Stage V” value came to 74.3 ± 24.3 min, the “Number of Deaths” value stood at 5, the “Number of SE Animals” value is on record as 7 and the “Number of seizures Stage I” value is 1.8 ± 0.8 times. In addition, in data set [1] (setting [6]), the “Number of seizures Stage II” value is 4.4 ± 3.7 times, the “Number of seizures Stage III” value was 3.6 ± 2.3 times, the “Occurrence rate Stage I” value was determined as 10% and the “Occurrence rate Stage II” value is 9%. Besides, in data set [1] (setting [6]), the “Occurrence rate Stage III” value turned out to be 8%, the “Occurrence rate Stage IV” value turned out to be 7%, the “Occurrence rate Stage V” value stood at 7% and the “duration Stage IV” value was 23.3 ± 6.6 min. Besides, in data set [1] (setting [6]), the “duration Stage V” value is given as 63.3 ± 19.0 min and the mortality rate turned out to be 50%. The “time of plasma concentration peak after administration” value in data set [4] (in vivo) is recorded as 1.3 h.

The values are drawn from patent US20180147183A1, “USE OF R-OXIRACETAM IN PHARMACEUTICAL FIELD” (Chongqing Runze Pharmaceutical Co., Ltd., priority 2015, published 2018).
